Data reported in article PMC10752971 (Frontiers in Pharmacology, 2023).
Read-outs that look alike come from different tables or passages of the source.

What was measured:
[1] = tested on: induced pulmonary fibrosis mouse models; parameters: method as in Beck et al., 2020; details: ref Beck et al., 2020; cited from earlier work
MYLA cells [2] = assay: RT-qPCR of OXTR, CALD1 and MYLK expression in MYLA cells; type: cell-based, human; details: for OXTR, CALD1, and MYLK expression at 48 h (RT-qPCR): 1 µM PGF2α + 1 µM antagonist vs 1 µM PGF2α; for Expression of OXTR, CALD1, and MYLK (RT-qPCR time series): 1 µM PGF2α + 1 µM antagonist, 1–48 h
FP receptor [3] = target: T1, FP receptor (Homo sapiens, UniProt P43088); assay: [35S]-GTPγS immunoprecipitation assay of Gα-subunit coupling in MYLA cell membranes
Description: Tissue preparation: MYLA cells were grown to 95%–100% confluency in a T175 flask, lifted, and pelleted via standard cell culture techniques. The harvested cells were homogenised in ice-cold lysis buffer (composition (mM): HEPES, 20; EDTA, 1; MgCl2, 2; KCl, 10; DTT, 2; pH, 7.4) using a Coleman handheld homogeniser. The homogenates were cleared (1,000×g, 10 min, 4°C) and membranes were collected by centrifugation (16,100×g, 90 min, 4°C). The membranes were resuspended in freezing buffer [composition (mM): HEPES, 10; MgCl2, 1; DTT, 1; pH, 7.4], where the protein concentration was adjusted to 1.5 mg/mL and rapidly frozen in liquid nitrogen. The membranes were stored at −80°C until required.
Radioligand binding assay: 75 μg of membrane was added to 50 μL of assay buffer [composition (mM): HEPES, 10; MgCl2, 10; NaCl, 100; pH, 7.4] containing 1 nM [^35S]-GTPγS (1,250 Ci/mmol) and 10 μM GDP, with or without agonist and antagonists as required, and incubated at 30°C for 2 min. Non-specific binding (NSB) was determined by the inclusion of 10 μM unlabelled GTPγS. Incubation was terminated by the addition of 900 μL of ice-cold assay buffer, and the samples were transferred to ice. The cell membrane was recovered from the reaction mixture by centrifugation (16,100×g, 6 min, 4°C), and the supernatant was removed by aspiration. Membrane pellets were solubilised by the addition of 50 μL of ice-cold solubilisation buffer [composition (mM): Tris-HCl, 100; NaCl, 200; EDTA, 1; IGEPAL CA 630, 1.25% (v/v); 0.2% (w/v) SDS; pH, 7.4] and vortex mixing. […] The beads were washed and pelleted thrice with 500 μL of solubilisation buffer (less SDS) before re-suspension in Pico-Flour^TM scintillation cocktail (Perkin Elmer, Buckinghamshire, United Kingdom) where [^35S]-GTPγS was determined by standard liquid scintillation counting methods.
Data analysis: Specific binding was determined by CPM values and expressed as a % increase over basal (unstimulated), and plotted using the GraphPad Prism 9 software. […]

FP receptor [4] = target: T1, FP receptor; assay: Antagonist Ca2+ assay: FP antagonists on PGF2α-stimulated Ca2+ transients in MYLA cells; type: cell-based; parameters: endogenous in cells; host or cells: MYLA cells (conditionally immortalised human myometrial cells; hTERT + temperature-sensitive SV40 large T)
Description: (§1) MYLA cells were grown to 95%–100% confluency in 3 cm^2 glass-bottom dishes (MatTek Corporation, MA, United States). The cells were serum starved for 24–48 h with 2% DMEM/F12 media and then incubated with 5 μM Calbryte^TM 520 AM (Stratech Scientific Ltd., Ely, United Kingdom) for 60 min at 37°C in a 95%/5% air/CO2-humidified environment, followed by 15 min at room temperature in the dark. […] The plates were then loaded on the stage of an Olympus IX81 inverted microscope and visualised with a 10x objective lens. Temperatures were maintained at 37°C. Calbryte^TM 520 AM was excited at Ex/Em: 490/525 nm. The cells were imaged for 3 min to allow any initial LED-induced Ca^2+ signalling to subside. […] Fluorescence was captured at a rate of one frame per second for 3 min, with agonist/antagonist injections occurring after a 30-s basal period.
(§2) Data analysis: Videos were visualised, and data were analysed using ImageJ, the image analysis software. […] The frequency of Ca^2+ oscillations was calculated as the average number of oscillations over time in seconds (Hz). All data were visualised using the GraphPad Prism 9 software.
(§3) Experiments were repeated on MYLA cells, where N represents the number of biological repeats.

[5] = tested on: transfected HEK-293 cell lines; parameters: method as in Martos et al., 2016; details: ref Martos et al., 2016; cited from earlier work
MYLA cells [6] = assay: RNA-Seq time series of marker gene expression in MYLA cells; type: cell-based, human
Description: The MYLA cells were seeded into a T75 flask and allowed to grow to 95%–100% confluency. […] The cells were harvested at T = 1, 3, 6, 9, 12, 24, and 48 h, pelleted (1,200 rpm, 5 min, 4°C), and snap frozen on dry ice before storage at −80°C.
RNA was extracted from pelleted cells using the GenElute^TM Total RNA Purification Kit (Sigma Aldrich, Poole, United Kingdom) according to the manufacturer’s instructions. RNA concentration and purity were determined using a NanoDrop 1000 Spectrophotometer (Thermo Fisher Scientific, Loughborough, United Kingdom). All RNA samples were stored at −80°C until use.
RNA quality was verified using a Bioanalyzer according to the manufacturer’s instructions (Eukaryote Total RNA Nano, Agilent). Illumina TruSeq RNA libraries were prepared and sequenced using a NextSeq 500 with a high-output 75 bp cycle cartridge (Illumina, Cambridge, United Kingdom) by the University of Warwick Genomic Facility.
bcl2fastq v2.20.0.422 was used for demultiplexing each sample. FastQC v0.11.9 was used to quality control check the demultiplexed FastQC files, and MultiQC v1.9 consolidated the QC reports. Reads were aligned to the human reference genome build GRCh38 release 86 using STAR version 2.7.9a. The number of reads mapped to each genomic feature was calculated with featureCounts v2.0.1. The counts were imported into R Studio and analysed with the DESeq2 package.
Data analysis: TPM data were processed and analysed using R Studio and then plotted using the GraphPad 9 software.
The experiments were technical triplicates of biological triplicate samples taken from seven time points. The data in Figures 8–10 were analysed by two-way ANOVA and post hoc Dunnett’s multiple comparison test comparing treatments to the ethanol vehicle.

FP receptor [7] = target: T1, FP receptor; details: MYLA cells
Description: as §1, §2, §3

[8] = 300 pM–10 µM antagonist in the presence of 1 µM PGF2α, N = 3, read-out: IC50, effect on AUC
[9] = 300 pM–10 µM antagonist in the presence of 1 µM PGF2α, N = 3, read-out: IC50, effect on Fmax
[10] = 300 pM–10 µM antagonist in the presence of 1 µM PGF2α, N = 3, read-out: IC50, effect on frequency of Ca2+ oscillations
[11] = four-parameter fit, bottom constrained to 0
[12] = normalised to averaged ionomycin Fmax

T1 sequence (P43088 whole entry): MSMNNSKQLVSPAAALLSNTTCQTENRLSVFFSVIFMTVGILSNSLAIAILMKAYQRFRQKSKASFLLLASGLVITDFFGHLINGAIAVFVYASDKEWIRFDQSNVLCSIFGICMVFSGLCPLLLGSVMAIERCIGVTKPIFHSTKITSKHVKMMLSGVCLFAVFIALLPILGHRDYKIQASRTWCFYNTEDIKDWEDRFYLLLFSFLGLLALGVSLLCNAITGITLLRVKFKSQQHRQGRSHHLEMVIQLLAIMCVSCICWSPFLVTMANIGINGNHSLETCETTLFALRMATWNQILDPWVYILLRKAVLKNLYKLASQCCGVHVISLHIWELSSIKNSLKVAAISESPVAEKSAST

Cc1c(N2CCCC2)nc2ccc(Br)cc2c1C(=O)NC[C@H](CCC(=O)O)c1ccccc1Cl [BAY-6672]
Effects in induced pulmonary fibrosis mouse models [1]: anti-inflammatory and antifibrotic effects

Cc1c(-c2ccccc2)nc2ccc(Br)cc2c1C(=O)NCC(CCC(=O)O)c1ccccc1Cl (stereo not drawn) [Compound 39/40, 5-(6-bromo-3-methyl-2-phenylquinoline-4-carboxamido)-4-(2-chlorophenyl) pentanoic acid]
OXTR, CALD1, and MYLK expression at 48 h (RT-qPCR) (MYLA cells [2]): significant decrease | Expression of OXTR, CALD1, and MYLK (RT-qPCR time series) (MYLA cells [2]): reduced | PGF2α-stimulated coupling to Gαq/11 (FP receptor [3]; 1 µM compound 39/40 + 1 µM PGF2α, 2 min): reversed | IC50 (FP receptor [4]; [8]): 90 nM | IC50 (FP receptor [4]; [9]): 284 nM | IC50 (FP receptor [4]; [10]): 154 nM | HillSlope ± SD, effect on AUC (FP receptor [4]; in the presence of 1 µM PGF2α): −0.98 ± 0.27 | HillSlope ± SD, effect on Fmax (FP receptor [4]; in the presence of 1 µM PGF2α): −0.54 ± 1.63 | HillSlope ± SD, effect on frequency (FP receptor [4]; in the presence of 1 µM PGF2α): −2.00 ± 0.56

Cc1c(N2CCCC2)nc2ccc(Br)cc2c1C(=O)NCC(CCC(=O)O)c1ccccc1Cl (stereo not drawn) [Compound 46/47, 5-(6-bromo-3-methyl-2-(pyrrolidin-1-yl)quinoline-4-carboxamido)-4-(2-chlorophenyl)-pentanoic acid]
HillSlope ± SD, effect on AUC (FP receptor [4]; in the presence of 1 µM PGF2α): −1.37 ± 0.68 | HillSlope ± SD, effect on Fmax (FP receptor [4]; in the presence of 1 µM PGF2α): −1.02 ± 0.40 | HillSlope ± SD, effect on frequency (FP receptor [4]; in the presence of 1 µM PGF2α): −0.69 ± 0.30

CC(C)Cn1ncc2cc(Cl)cc(Cn3nc(N)c4cc(C(=O)O)ccc43)c21 [Compound 68, 3-amino-1-((5-chloro-1-isobutyl-1H-indazol-7-yl)methyl)-1H-indazole-5-carboxylic acid]
Potency in FLIPR functional assays [5]: potent | IC50 (FP receptor [4]; [8]): 175 nM | IC50 (FP receptor [4]; [9]): 194 nM | IC50 (FP receptor [4]; [10]): 978 nM | HillSlope ± SD, effect on AUC (FP receptor [4]; in the presence of 1 µM PGF2α): −0.44 ± 0.19 | HillSlope ± SD, effect on Fmax (FP receptor [4]; in the presence of 1 µM PGF2α): −0.47 ± 0.19 | HillSlope ± SD, effect on frequency (FP receptor [4]; in the presence of 1 µM PGF2α): −0.49 ± 0.17 | IC50 (FP receptor [4]; in the presence of 1 µM PGF2α, N = 3, read-out: pIC50 ± SD, effect on AUC (converted)): 89.1 nM

O=C(N[C@H](c1ccc(F)cc1)[C@H]1CCS(=O)(=O)C1)[C@@H]1CCN1S(=O)(=O)c1ccc(-c2cccnc2)cc1 [Compound N582707, (S)-N-((S)-((R)-1,1-dioxidotetrahydrothiophen-3-yl)(4-fluorophenyl)methyl)-1-((4-(pyridin-3-yl)phenyl)sulfonyl)azetidine-2-carboxamide]
Expression of fibroblast marker genes (DCN, FBLN1, LOXL1, PDGFRA) (MYLA cells [6]; 1 µM PGF2α + 1 µM FP antagonist, up to 48 h): increased the expression | OXTR, CALD1, and MYLK expression at 48 h (RT-qPCR) (MYLA cells [2]): significant decrease | Expression of OXTR, CALD1, and MYLK (RT-qPCR time series) (MYLA cells [2]): reduced | IC50 (FP receptor [4]; [8]): 50.4 nM | IC50 (FP receptor [4]; [9]): 21.3 nM | IC50 (FP receptor [4]; [10]): 22.1 nM | HillSlope ± SD, effect on Fmax (FP receptor [4]; in the presence of 1 µM PGF2α): −0.49 ± 0.20 | HillSlope ± SD, effect on frequency (FP receptor [4]; in the presence of 1 µM PGF2α): −0.55 ± 0.17 | IC50 (FP receptor [4]; in the presence of 1 µM PGF2α, N = 3, read-out: pIC50 ± SD, effect on frequency of Ca2+ oscillations (converted)): 21.9 nM

O=C(N[C@@H](CCO)c1ccc(F)cc1)[C@@H]1SCCN1S(=O)(=O)c1ccc(-c2ccccc2)cc1 [OBE002, [(S)-3-(biphenyl-4-sulfonyl)-thiazolidine-2-carboxylic acid [(S)-1-(4-fluorophenyl)-3-hydroxy-propyl]-amide]]
IC50 (FP receptor [4]; [8]): 180 nM | IC50 (FP receptor [4]; [9]): 78.3 nM | IC50 (FP receptor [4]; [10]): 1980 nM | HillSlope ± SD, effect on AUC (FP receptor [4]; in the presence of 1 µM PGF2α): −0.41 ± 0.17 | HillSlope ± SD, effect on Fmax (FP receptor [4]; in the presence of 1 µM PGF2α): −0.38 ± 0.15 | HillSlope ± SD, effect on frequency (FP receptor [4]; in the presence of 1 µM PGF2α): −0.36 ± 0.19 | pIC50 ± SD, effect on Fmax (FP receptor [4]; in the presence of 1 µM PGF2α, N = 3): 7.11 ± 0.68

CCCCC[C@H](O)/C=C/[C@@H]1[C@@H](C/C=C\CCCC(=O)O)[C@@H](O)C[C@H]1O [PGF2α, prostaglandin F2α]
Expression of key genes involved in labour such as OXTR (also IL6, IL11) (MYLA cells [6]; 1 µM PGF2α vs vehicle, 1–48 h): upregulated | Expression of smooth muscle marker genes (ACTA2, CALD1, CNN1, COL4A1, COL4A2, MYLK, MYOCD, TAGLN, TGFB2, TGFB3) (MYLA cells [6]; 1 µM PGF2α, up to 48 h): increased expression | Effect on Fmax, AUC and frequency of intracellular Ca2+ oscillations compared to basal (FP receptor [7]; 300 pM to 10 µM PGF2α): concentration-dependent increase | HillSlope ± SEM, AUC (FP receptor [7]; [11]): 1.06 ± 0.45 | HillSlope ± SEM, Fmax (FP receptor [7]; [11]): 0.91 ± 0.28 | HillSlope ± SEM, Frequency (FP receptor [7]; [11]): 0.88 ± 0.33 | Emax ± SEM, Frequency (FP receptor [7]; frequency of Ca2+ oscillations): 0.01 ± 0.01 | Emax ± SEM, AUC (FP receptor [7]; [12]): 1.50 ± 0.14 | Emax ± SEM, Fmax (FP receptor [7]; [12]): 0.14 ± 0.01 | [35S]-GTPγS binding to Gαq/11 (FP receptor [3]; 1 µM PGF2α vs basal, 2 min): significantly increased | Gαs and Gαi coupling (FP receptor [3]; stimulation with PGF2α): no effect
